Experiments:
[1] = Hair straightening on dry hair switches (volume of switch image), Experiments 1 and 4
Method: Dark brown European wavy#6 switches of length 25 cm and weight 2 gms, were dosed with 2 ml each of 5% citric acid solutions at various pH's. They were combed straight and left to dry for at least 20 minutes. They were subsequently rinsed for 30 seconds under the tap. They were then combed straight and left to dry overnight. When dry the switches were combed straight and pictures taken. […] (Here volume refers to the projection of the switch image on to the screen and is given in mm^2).

[2] = Hair straightening with application to wet hair, Experiment 3
[3] = Solubility of actives at the 5% level; assay type: physicochemical
[4] = 5% solution at pH 2, 2 ml dosed on dry switch, left at least 20 min, rinsed, combed, dried overnight
[5] = 5% solution at pH 2, dosed on dry switch
[6] = 5% solution at pH 3, dosed on dry switch
[7] = 5% solution at pH 4, dosed on dry switch
[8] = 5% solution at pH 5, dosed on dry switch
[9] = 5% solution at pH 6, dosed on dry switch

SMILES	Volume in mm^2 [1, 4]	% benefit over water [1, 5]	% benefit over water [1, 6]	Volume in mm^2 [1, 6]	also measured
O=C(O)CC(=O)O [Malonic acid]	11220 mm^2	21.4%	16.3%	11950 mm^2	
O=C(O)C(=O)O [Oxalic acid]	13419 mm^2	6.0%			
O=C(O)/C=C(\CC(=O)O)C(=O)O [trans Aconitic acid]	8456 mm^2	40.8%	17.3%	11812 mm^2	
O=C(O)CC(O)(CC(=O)O)C(=O)O [citric acid]	9481 mm^2	33.6%	32.9%	9574 mm^2	% benefit over water [1, 7]: 17.9%; Volume in mm^2 [1, 7]: 11717 mm^2; % benefit over water [1, 8]: 23.9%; Volume in mm^2 [1, 8]: 10871 mm^2; % benefit over water [1, 9]: 15.0%; Volume in mm^2 [1, 9]: 12136 mm^2; straightening benefit compared with the results with dry hair ([2]; 5% solution at pH 2 applied to wet hair): significantly reduced; straightening benefit compared with the results with dry hair ([2]; 5% solution at pH 3 applied to wet hair): significantly reduced
O=C(O)C(O)c1ccccc1 (stereo not drawn) [Mandelic acid, reference compound]	13545 mm^2	5.1%			
O=C(O)/C=C/C(=O)O [Fumaric acid]					solubility at the 5% level [3]: not soluble at the 5% level
O=C(O)CC(O)C(=O)O (stereo not drawn) [Malic acid]	12426 mm^2	13.0%			
